# Experimental data taken from US10100313B2, “Use of Mcoln-1 modulators to regulate cell migration” (INSTITUT CURIE, priority 2014, dated 2018).
# “Also recorded” adds a separate entry of the source.
# Experiments:
# Assay type in all cases: cell-based, mouse
# [1] = system: dendritic cells; test: Flow cytometry analysis of CD86 levels (DC activation/maturation); details: immature and LPS-matured cells, 5 or 10 μM
# Experimental: The following reagents were used for imaging experiments: WGA AlexaFluor-647 and Hoechst (both from Life Technologies). Micro-channels were coated with Fibronectin (Sigma). Cell activation was performed with LPS (Sigma). For flow cytometry the following antibodies were used: anti-CD86 (GL1 clone, 553692) and a Rat IgG2a,κ isotype control (553930) from BD Biosciences.
# (§1) Mouse bone-marrow cells were cultured during 10-12 days in medium supplemented with fetal calf serum and granulocyte-macrophage colony stimulating factor-containing supernatant obtained from transfected J558 cells, as previously described (Faure-Andre et al, 2008, Science, 322, 1705-10). For migration or mapping assays (see below), cells at day 10-12 were activated with 100 ng/ml of LPS (mature cells, LPS DCs), for 30 min, then rinsed 3 times with complete media and put into the channels. Counterpart immature cells for these experiments are treated in the same condition, but in absence of LPS.
# Cells were resuspended in staining buffer (PBS BSA 2%) and stained 30 min at 4° C. with the indicated antibodies. Cells were then washed 3 times and resuspended in staining buffer. All Facs experiments were carried on an Accuri flow cytometer (BD Biosciences).
# [2] = system: dendritic cells; test: Migration assay in micro-channels
# Experimental: as §1
# Micro-channels were prepared as previously described (Faure-Andre et al, 2008, Science, 322, 1705-10; Heuze et al., 2011, Methods Mol Biol., 769, 415-434). They were incubated with 10 μg/ml fibronectin alone for 1 h and washed with PBS.
# For migration assay, cells were loaded in micro-channels (section 5×5 μm) and imaged at least for 16 hours on an epifluorescence video-microscope Nikon TiE microscope equipped with a cooled CCD camera (HQ2, Photometrics) with a 10× objective, one transmission phase image taken every 2 minutes. Kymograph extraction and instantaneous velocity analysis were performed using a homemade program as described previously (Faure-Andre et al, 2008, Science, 322, 1705-10).
# [3] = system: dendritic cells; test: Mapping assay of polymerized actin in migrating Lifeact dendritic cells; details: immature DCs
# Experimental: as §1
# Lifeact dendritic cells (nucleofected or not) were incubated for 30 min in […] Hoechst-containing medium, washed 3 times and 10^5 cells per well were loaded and incubated from 4 h to overnight to allow their entry into micro-channels (section was 8×5 μm). After entry, cells were imaged at least for 16 hours on an epifluorescence video-microscope Nikon TiE microscope equipped with a cooled CCD camera (HQ2, Photometrics) with a 20× objective. Images were acquired every 3 minutes. […] Furthermore for each cell, spatial coordinates of the nuclei were measured and ratio between the mean actin density at the front and at the back of the nucleus was computed. […]
substance,measurement,setting,value
MLSA1,CD86 levels (cell activation / LPS-induced maturation),[1],"No effect; also recorded: does not activate immature cells, nor prevent the LPS-induced maturation"
same,cell velocity,[2]; immature DCs,increases
same,persistence,[2]; immature DCs,increases
same,cell velocity,[2]; mature cells (LPS DCs),does not further increase
same,persistence,[2]; mature cells (LPS DCs),does not further increase
same,actin polymerization at the cell center/cell rear,[3],enriched at their rear; also recorded: partially induces
same,fraction of time spent by DCs with actin at their front,[3]; compared to immature control DCs,decreased
